Data set [1] concerns Hepatitis C virus. In words: Antiviral activity against HCV2a J6/JFH1 infected in Huh7-5 cells assessed as inhibition of core protein dimerization by RT PCR. It counts as functional, organism-based, Hepacivirus hominis, subtype 2a J6/JFH1.
Data set [2] can be described thus: Cytotoxicity against human Huh7.5 cells. In kind it is cell-based, Huh-7.
For data set [3], the system named is Hepatitis C virus. In words: Antiviral activity against HCV2a J6/JFH1 infected in Huh7-5 cells at early T1 stage assessed as inhibition of core protein dimerization by RT PCR. It counts as functional, organism-based, Hepacivirus hominis. The note with it: subtype 2a J6/JFH1, Huh7.5.
The test system of data set [4] is Hepatitis C virus. In words: Antiviral activity against HCV2a J6/JFH1 infected in Huh7-5 cells at late T2 stage assessed as inhibition of core protein dimerization by RT PCR. In kind it is functional, organism-based, Hepacivirus hominis. The settings on record: subtype 2a J6/JFH1, Huh7.5.
[5] abbreviates: Hepatitis C virus, subtype 2a J6/JFH1, Huh7.5, read-out: IC50.

Among the data in ChEMBL document CHEMBL1156746, “New small molecule inhibitors of hepatitis C virus” (Bioorg Med Chem Lett, 2009) are IC50, CC50 and EC50 values, retold here.

In the case of `C=CCN1c2ccc(OC)cc2[C@]23CCC(=O)N(Cc4ccccc4)C2=NC(C(=O)OC)=C(C(=O)OC)C13` (mixture of isomers), in the data set on Hepatitis C virus [1] (setting [5]), the IC50 was found to be 1.4 µM. In data set [2] (Huh7.5 cells), this compound showed a CC50 of 127 µM. In addition, the half-maximal effective concentration (EC50) is 2.3 µM with Hepatitis C virus [3] and 3.2 µM in the data set with Hepatitis C virus [4].

With `COc1ccc2c(O[C@@H]3C[C@H]4C(=O)N[C@]5(C(=O)O)C[C@H]5/C=C\CCCCC[C@H](NC(=O)OC5CCCC5)C(=O)N4C3)cc(-c3csc(NC(C)C)n3)nc2c1` [CILUPREVIR], the IC50 result with Hepatitis C virus [1] (huh7-5) was “Not Active”. Further, in data set [2] (huh-7), the CC50 was determined as 5.3 µM. Also, the EC50 stood at 0.072 µM in the data set on Hepatitis C virus [3] and 0.071 µM with Hepatitis C virus [4].

As for `CC#CCN1c2ccc(OC)cc2[C@]23CCC(=O)N(CCOC)C2=NC(C(=O)OC)=C(C(=O)OC)C13` (mixture of isomers), the IC50 in the data set on Hepatitis C virus [1] (setting [5]) was 2 µM. In data set [2] (Huh7.5 cells), the CC50 is greater than 320 µM. The concentration for a half-maximal effect (EC50) stood at 4.9 µM in the data set on Hepatitis C virus [3] and 0.7 µM in the data set with Hepatitis C virus [4].

For `C=CCN1c2ccc(OC)cc2[C@]23CCC(=O)N(Cc4cc(OC)c(OC)c(OC)c4)C2=NC(C(=O)OC)=C(C(=O)OC)C13` (mixture of isomers), the IC50 with Hepatitis C virus [1] (setting [5]) amounted to 2 µM. Also, half-maximal cytotoxicity in data set [2] (Huh7.5 cells) (CC50) was put at 5.3 µM. In addition, the figures for the EC50 in the data set with Hepatitis C virus [3] and in the data set on Hepatitis C virus [4] were 3.8 µM and 3 µM, respectively.

With `COC(=O)C1=C(C(=O)OC)C2N(C)c3ccc(OC)cc3[C@@]23C[C@@H](C(=O)OC)N(C(=O)CC(C)C)C3=N1` (mixture of isomers), the IC50 in the data set with Hepatitis C virus [1] (setting [5]) came out at 9.3 µM. Moreover, in data set [2] (Huh7.5 cells), the CC50 is greater than 320 µM. The results for the EC50 in the data set with Hepatitis C virus [3] and in the data set with Hepatitis C virus [4] were 14.8 µM and 22.2 µM, respectively.

The term IC50 denotes the concentration that gives 50% inhibition. As usually defined, the CC50 is the concentration that lowers cell viability or growth by half. A lower CC50 goes with greater toxicity to the cells. A word on the EC50: it is the concentration needed to bring the measured effect to its halfway point.
